Tests used:
Conditions in all cases: human; call rule not given here
Hepatotoxicity [1] = assay: FDA HLAED, lactate dehydrogenase (LDH) increase
Hepatotoxicity [2] = assay: FDA HLAED, gamma-glutamyl transferase (GGT) increase
Hepatotoxicity [3] = assay: FDA HLAED, liver enzyme composite activity
Hepatotoxicity [4] = assay: FDA HLAED, alkaline phosphatase increase
Hepatotoxicity [5] = assay: FDA HLAED, serum glutamic pyruvic transaminase (SGPT) increase
Hepatotoxicity [6] = assay: FDA HLAED, serum glutamic oxaloacetic transaminase (SGOT) increase
For GGT Increase - Index Value in this document: reference of the scale not given here.
For LDH Increase - Index Value in this document: reference of the scale not given here.

SMILES | LDH Increase - Activity Score (Hepatotoxicity [1]) | LDH Increase - Index Value (Hepatotoxicity [1]) | LDH Increase - Number of Reports (Hepatotoxicity [1]) | GGT Increase - Activity Score (Hepatotoxicity [2]) | GGT Increase - Index Value (Hepatotoxicity [2]) | GGT Increase - Number of Reports (Hepatotoxicity [2]) | Composite Activity - Active (Hepatotoxicity [3]) | Composite Activity - Marginal (Hepatotoxicity [3]) | Composite Activity - Score (Hepatotoxicity [3]) | Alkaline Phosphatase Increase - Activity Score (Hepatotoxicity [4]) | Alkaline Phosphatase Increase - Index Value (Hepatotoxicity [4]) | Alkaline Phosphatase Increase - Number of Reports (Hepatotoxicity [4]) | SGPT Increase - Activity Score (Hepatotoxicity [5]) | SGPT Increase - Index Value (Hepatotoxicity [5]) | SGPT Increase - Number of Reports (Hepatotoxicity [5]) | SGOT Increase - Activity Score (Hepatotoxicity [6]) | SGOT Increase - Index Value (Hepatotoxicity [6]) | SGOT Increase - Number of Reports (Hepatotoxicity [6]) | also measured
O=C(NCC1CCCCN1)c1cc(OCC(F)(F)F)ccc1OCC(F)(F)F (stereo not given) [FLECAINIDE] | Marginally Active | 3.2 | >= 4 | Inactive | 0 | < 4 | 3 | 1 | Active | Active | 8.3 | >= 4 | Active | 8.3 | >= 4 | Active | 9.6 | >= 4 | –
Cn1cc([S+](C)[O-])c(=O)c2ccc(F)cc21 (stereo not given) [FLOSEQUINAN] | Active | 56.6 | >= 4 | Inactive | 0 | < 4 | 1 | 0 | Inactive | Inactive | 14.1 | < 4 | Inactive | 28.3 | < 4 | Inactive | 28.3 | < 4 | –
OC(Cn1cncn1)(Cn1cncn1)c1ccc(F)cc1F [FLUCONAZOLE] | Marginally Active | 3 | >= 4 | Active | 4.2 | >= 4 | – | – | – | Active | 8.4 | >= 4 | Active | 9.1 | >= 4 | Active | 9.8 | >= 4 | Composite Activity - Active (Hepatotoxicity [3]; Liver): 4; Composite Activity - Marginal (Hepatotoxicity [3]; Liver): 1; Composite Activity - Score (Hepatotoxicity [3]; Liver): Active
Nc1nc(F)nc2c1ncn2[C@@H]1O[C@H](CO)[C@@H](O)[C@@H]1O [FLUDARABINE] | Active | 18.3 | >= 4 | Inactive | 0 | < 4 | 4 | 0 | Active | Active | 9.2 | >= 4 | Active | 10.7 | >= 4 | Active | 9.2 | >= 4 | –
CCOC(=O)c1ncn2c1CN(C)C(=O)c1cc(F)ccc1-2 [FLUMAZENIL] | Inactive | 0 | < 4 | Inactive | 0 | < 4 | 0 | 0 | Inactive | Inactive | 0 | < 4 | Inactive | 2.5 | < 4 | Inactive | 2.5 | < 4 | –

From ChEMBL document CHEMBL1697781, “Assessment of the health effects of chemicals in humans: II. Construction of an adverse effects database for QSAR modeling” (Curr Drug Discov Technol, 2004)
